Assay results published in patent publication US20260070921A1, “COMPOUND, ENDOPLASMIC RETICULUM STRESS INHIBITOR, PHARMACEUTICAL PRODUCT, OPHTHALMIC AGENT, EYE DROPS, COMPOSITION, AND METHOD FOR PRODUCING COMPOUND” (KYOTO UNIVERSITY, priority 2022, published 2026).

Assays:
HEK293 cells [1] = experiment: Cell viability assay without ER stress inducer (cytotoxicity, WST-8); format: cell-based; conditions: 64 h
Description: HEK293 cells were treated with compound 1, compound 4, compound 5, or compound 6 (25 μM or 100 μM, respectively) for 64 hours. The vertical axis represents relative cell viability (unit: %), and the horizontal axis represents concentration (unit: μM). Cell viability was measured using a WST-8 cell counting kit. Error bars represent s.d. (n=3).
(§1) FIG. 31 is a graph showing the results of a cell viability assay using bafilomycin A1. HEK293 cells were treated with bafilomycin A1 in DMEM (10% FBS) for 48 hours. The vertical axis represents relative cell viability (unit: %), and the horizontal axis represents the concentration of bafilomycin A1 (unit: μM). Cell viability was measured using a WST-8 cell counting kit. Error bars represent s.d. (n=3).
as §1, with “32” for “31”, “MG132.” for “bafilomycin A1.”, “MG132” for “bafilomycin A1”, “t),” for “%),”
The term “Efficacy” denotes ER (endoplasmic reticulum) stress inhibition activity. The term “Toxicity” denotes cytotoxicity. In the ER stress inhibition activity (Efficacy), “−” indicates no activity, “+” indicates weak activity, and “++” indicates strong activity. In addition, “XD7” in Table 1 below represents compound 6. That is, XD7 and compound 6 are the same compound.

luciferase = experiment: Luciferase-based refolding assay in live cells; format: cell-based; conditions: compound 1 100 μM, compound 6 25 μM, 20 h
Description: HEK293 cells were seeded in 96-well plates (2×10^4 cells/well) and transfected with a luciferase expression plasmid (0.1 μg/well) using FuGENE HD (Promega). […] Refolding assay was performed as described in Walther, T. V.; Maddalo, D. Intracellular Refolding Assay. J Vis Exp 2012, No. 59. https://doi.org/10.3791/3540. Briefly speaking, luciferase was denatured in live cells by incubation at 45° C. for 30 minutes in the presence of 200 mM MOPS and 20 μg/mL cycloheximide. After the denaturation step, the cells were incubated at 37° C. for various times to allow the luciferase to refold. After cells were lysed with Reporter Lysis 5× Buffer (Promega), luciferase activity was measured.

HEK293 cells [2] = experiment: Tunicamycin assay using an autophagy or proteasome inhibitor; format: cell-based; conditions: pre-incubation 16 h, tunicamycin 5.0 μg/mL 48 h
Description: (§2) Cellular protein aggregates are often cleared by cellular mechanisms, such as autophagy and ubiquitin-proteasome system. To examine the importance of these proteolytic pathways in the activity of compounds 1 and 6, their ability to inhibit tunicamycin-induced cytotoxicity in the presence of an autophagy or proteasome inhibitor (bafilomycin A1 or MG132, respectively) was measured. FIG. 9 is a graph showing the results of a tunicamycin assay using an autophagy or proteasome inhibitor. Cells were pre-incubated with compound 1 or compound 6 for 16 hours and then treated with tunicamycin (5.0 μg/mL) in the presence or absence of a specified substance for 48 hours. FIG. 9(A) is a graph showing measurements in the presence or absence of bafilomycin A1 (Baf A1, autophagy inhibitor). FIG. 9(B) is a graph showing measurements in the presence or absence of MG132 (proteasome inhibitor). Error bars represent s.d. (n=3). Statistical analysis was performed according to the one-way ANOVA and Dunnett's test. *P<0.05; n.s.: not significant. […] The concentrations used of the inhibitors were confirmed to be non-toxic to cells (FIGS. 31 and 32). To further study the role of autophagy, autophagy-deficient atg7^−/− and p62^−/− mouse embryonic fibroblasts (MEFs) were subjected to a tunicamycin assay. FIG. 10 is a graph showing the results of the tunicamycin assay using the autophagy-deficient cells. Wild-type (wt), atg7^−/−, or p62^−/− mouse embryonic fibroblasts (MEFs) were treated with molecule 1 (100 μM) or molecule 6 (25 μM) for 18 hours and then incubated with tunicamycin (5.0 μg/mL) for 48 hours. Error bars represent s.d. (n=3). Statistical analysis was performed according to the one-way ANOVA and Dunnett's test. *P<0.05, **P<0.01. ATG7 is an E1-like enzyme important for phagophore expansion, and p62 is an autophagy receptor for ubiquitinated substrates (Reference Material 20 below). Wild-type (wt), atg7^−/−, or p62^−/− MEF cells were treated with compound 1 or compound 6 for 18 hours, followed by treatment with tunicamycin (5.0 μg/mL) for 48 hours. […] Nat Rev Mol Cell Bio 2018, 19 (6), 349-364. https://doi.org/10.1038/s41580-018-0003-4.

[3] = tested on: mouse embryonic fibroblasts (MEFs); experiment: Tunicamycin assay using autophagy-deficient cells; format: cell-based; conditions: for Rescue from ER stress-induced cell death: wild-type MEFs, compound 1 100 μM, compound 6 25 μM, 18 h, tunicamycin 5.0 μg/mL 48 h
Description: as §2

iFECD = experiment: TGF-β2-induced cell damage in iFECD (phase-contrast microscopy); format: cell-based, human; conditions: pretreatment 24 h, TGF-β2 10 ng/ml; compound 1 1-100 μM, compound 6 10 nM-1 μM
Description: The medium was removed from the culture dish, in which iFECD was being cultured, and 1×PBS(−) that had been pre-warmed to 37° C. was added to wash the cells. This procedure was performed twice. Again, 1×PBS(−) was added, and the cells were incubated at 37° C. (5% CO2) for 3 minutes. After the PBS(−) was removed, 0.05% Trypsin-EDTA (Nacalai Tesque, 32778-34) was added, and the cells were incubated at 37° C. ([…]) for 5 minutes. Thereafter, the cells were suspended in a medium and centrifuged at 1500 rpm for 3 minutes to recover the cells. The medium used was DMEM (Nacalai Tesque, 08456-36)+10% FBS (Biowest, S1820-500)+1% P/S (Nacalai Tesque, 26252-94).
iFECD cells were seeded in a 12-well plate at a density of 0.5×10^5 cells per well and cultured at 37° C.
The same method as described in the Materials and Methods section in Example 11-1 was used, except that compound 6 was used instead of compound 1, and the amount of iFECD seeded in a 12-well plate was changed from 0.5×10^5 cells per well to 0.9×10^5 cells per well.

SMILES	Cytotoxicity (HEK293 cells [1]; at 25 μM)	Cytotoxicity (HEK293 cells [1]; at 100 μM)	Refolding of luciferase (luciferase)	Activity in the presence of MG132 (HEK293 cells [2])	Activity in the presence of bafilomycin A1 (HEK293 cells [2])	Ability to rescue from ER stress-induced cell death ([3]; atg7−/− MEFs)	Ability to rescue from ER stress-induced cell death ([3]; p62−/− MEFs)	Rescue from ER stress-induced cell death [3]	Cell damage induced by recombinant human TGF-β2 (iFECD)	Cytotoxicity (HEK293 cells [1]; up to 100 μM)
COc1ccc2c(c1)sc1c(=O)nc3nc(Nc4ccc(S(N)(=O)=O)cc4)ccn3c12 [compound 6]	no obvious cytotoxicity	slightly reduced cell viability	slightly inhibited refolding	no significant effect	partially canceled	severely impaired	severely impaired	rescued	limited damage to corneal endothelial cells	–
NS(=O)(=O)c1ccc(Nc2ccn3c(n2)nc(=O)c2sc4cc(F)ccc4c23)cc1 [compound 1]	–	–	slightly inhibited refolding	no significant effect	partially canceled	severely impaired	severely impaired	rescued	limited damage to corneal endothelial cells	no obvious cytotoxicity
